Reference: patent publication US11377451B2, “Compositions and methods for treating cancer” (The Regents of the University of California, priority 2019, dated 2022)
Read-outs that look alike come from different tables or passages of the source.

Tests used:
[1] = Idasanutlin brain and plasma concentrations by mass spectrometry; type: in vivo; settings: male, CD-1, mouse, mice with an intact blood-brain-barrier, 50 mg/kg oral gavage
Experimental: Male CD-1 mice (6-8 weeks old) were treated with 50 mg/kg Idasanutlin in duplicate through oral gavage. At 0.5, 1, 2, 4, 6, 8, 12, and 24 hr after administration, mice were sacrificed, blood was harvested by retro-orbital bleeding, and brain tissue was collected. Whole blood from mice was centrifuged to isolate plasma. Idasanutlin was isolated by liquid-liquid extraction from plasma: 50 μL plasma was added to 2 μL internal standard and 100 μL acetonitrile. Mouse brain tissue was washed with 2 mL cold PBS and homogenized using a tissue homogenizer with fresh 2 mL cold PBS. Idasanutlin was then isolated and reconstituted in a similar manner by liquid-liquid extraction: 100 μL brain homogenate was added to 2 μL internal standard and 200 μL acetonitrile. After vortex mixing, the samples was centrifuged. The supernatant was removed and evaporated by a rotary evaporator and reconstituted in 100 μL 50:50 water: acetonitrile.
Chromatographic separations were performed on a 100×2.1 mm Phenomenex Kinetex C18 column (Kinetex) using the 1290 Infinity LC system (Agilent). The mobile phase was composed of solvent A: 0.1% formic acid in Milli-Q water, and B: 0.1% formic acid in acetonitrile. […] Analyte signal was normalized to the internal standard and concentrations were determined by comparison to the calibration curve (0.5, 5, 50, 250, 500, 2000 nM). […]

p53 = assay: Immunohistochemistry of p53 in orthotopic tumor-bearing mice; type: in vivo; settings: 50 mg/kg, 36 hours
Experimental: Immunohistochemistry was performed on 4 μm sections that were cut from FFPE (formalin-fixed, paraffin-embedded) blocks. Sections were then deparaffinised with xylene and rehydrated through graded ethanol. […] Tissue sections were then treated with 3% hydrogen peroxide (LOT 161509; Fisher Chemical) and with Background Sniper (Biocare Medical, Concord, Calif., USA) to reduce nonspecific background staining. Primary antibody for p53 (Cell Signaling, 2527) was applied in a 1:150 dilution for 80 min followed by detection with the MACH 3 Rabbit HRP-Polymer Detection kit (Biocare Medical). Visualization was achieved using VECTOR NovaRED (SK-4800; Vector Laboratories, Inc.) as chromogen. Lastly, sections were counterstained with Tacha's Automated Hematoxylin (Biocare Medical).

HK301 = assay: GI50 assay (Cell Titer Glo proliferation, 3 days); type: cell-based, human; settings: Homo sapiens, 72 h, read-out: HK301 GI50 (nM)
[2] = Pharmacokinetic / brain penetration studies in mice; type: in vivo
Experimental: Pharmacokinetic studies were performed on male CD-1 mice aged 8-10 weeks. Mice were dosed as indicated in duplicates. At the time points, whole blood was obtained by retro-orbital bleeding and brain tissue was harvested. Blood samples were centrifuged to obtain plasma and brain tissue was washed and homogenized. Samples were extracted with acetonitrile and supernatant was dried using a speed-vac. Dried samples were solubilized in 50:50:0.1 acetonitrile:water:formic acid and quantified on an Agilent 6400 series Triple Quadrupole LC/MS.
Disclosed in table 5 Brain to plasma percentages and unbound ratios of drugs in brain to plasma of indicated drugs in non-tumor bearing mice

[3] = tested on: patient-derived GBM gliomaspheres; assay: 18F-FDG uptake assay; type: cell-based, human; settings: metabolic responder GBMs, erlotinib 1 μM, 4 hours
Experimental: Cells were plated at 5×10^4 cells/ml and treated with designated drugs for indicated time points. Following appropriate treatment, cells were collected and resuspended in glucose-free DMEM/F12 (USBiological) containing ^18F-FDG (radioactivity 1 μCi/mL). Cells were incubated at 37° C. for 1 hr and then washed three times with ice cold PBS. Radioactivity of each sample was then measured using a gamma counter.

[4] = tested on: patient-derived GBM gliomaspheres; assay: Annexin V apoptosis assay; type: cell-based, human; settings: 72 hours of erlotinib exposure, 1 μM
Experimental: Cells were collected and analyzed for Annexin V and PI staining according to manufacturer's protocol (BD Biosciences). Briefly, cells were plated at 5×10^4 cells/ml and treated with appropriate drugs. Following indicated time points, cells were collected, trypsinized, washed with PBS, and stained with Annexin V and PI for 15 minutes. Samples were then analyzed using the BD LSRII flow cytometer.
Annexin V staining was measured following 72 hrs of treatment. Using the Chalice software, the response of the combination was compared to its single agents. The combinatorial effects were calculated using the synergy score.

[5] = tested on: BIM, PUMA; PI3K-AKT-mTOR signaling; assay: Immunoblotting; type: cell-based, human; settings: only in the metabolic responder cultures, acute erlotinib treatment
Experimental: Cells were collected and lysed in RIPA buffer (Boston BioProducts) containing Halt Protease and Phosphatase Inhibitor (Thermo Fischer Scientific). Lysates were centrifuged at 14,000×g for 15 min at 4° C. […] Membranes were developed using the SuperSignal system (Thermo Fischer Scientific).

[6] = tested on: GBM39 and HK393 intracranial xenografts; assay: Intracranial delayed 18F-FDG PET/CT mouse imaging; type: in vivo, mice
Experimental: Following 1 hr unconscious uptake, mice were taken off anesthesia but kept warm for another 5 hr of uptake. 6 hr after the initial administration of ^18F-FDG, mice were imaged using G8 PET/CT scanner (Sofie Biosciences). Per above, quantification was performed by drawing 3D regions of interest (ROI) using the AMIDE software.

[7] = cited from earlier work
gliomas = settings: cited from earlier work
[8] = Protein binding (fraction unbound in blood and brain)
[9] = higher dose: Erlotinib 1500 (weekly), Gefitinib 750-1000

Row | Kp [1] | Kpuu (Avg) ([2]; Table 4, unbound partition coefficient of the brain and plasma, at equilibrium) | Kpuu (Avg) ([2]; Table 5, unbound ratios of drugs in brain to plasma, non-tumor bearing mice) | Bound (blood) ([8]; blood) | fraction unbound ([8]; blood, Fu (blood)) | Bound (brain) ([8]; brain) | fraction unbound ([8]; brain, Fu (brain)) | SMILES | p53 stabilization in tumor (p53) | GI50 (HK301) | radio-labeled glucose uptake (18F-FDG) [3] | apoptosis (annexin V staining) ([4]; metabolic responders) | apoptosis (annexin V staining) ([4]; non-responders) | expression of pro-apoptotic BH3-only proteins BIM and PUMA [5] | 18F-FDG uptake (PET) ([6]; GBM39 orthotopic xenografts, erlotinib 75 mg/kg, 15 hours post administration) | 18F-FDG uptake (PET) ([6]; HK393 orthotopic xenografts (non-metabolic responder), acute EGFRi) | CSF ([7]; Daily Dose: Afatinib 50, Alectinib 1200, Crizotinib 500, Erlotinib 150, Gefitinib 250, Lapatinib 1250) | Plasma ([7]; Daily Dose: Afatinib 50, Crizotinib 500, Erlotinib 150, Gefitinib 250, Lapatinib 1250) | CSF [7, 9] | Plasma [7, 9] | response rates against gliomas (gliomas)
1 | 0.35 |  |  |  |  |  |  | COc1cc(C(=O)O)ccc1NC(=O)[C@@H]1N[C@@H](CC(C)(C)C)[C@](C#N)(c2ccc(Cl)cc2F)[C@H]1c1cccc(Cl)c1F [Idasanutlin] | stabilizes p53 |  |  |  |  |  |  |  |  |  |  |  | 
2 |  | 0.0513 | 0.051 | 95.12% | 0.0488 | 97.07% | 0.0293 | C#Cc1cccc(Nc2ncnc3cc(OCCOC)c(OCCOC)cc23)c1 [Erlotinib, erlotinib] |  | 642 nM | significantly attenuated | ~17% | ~3% | promoted the expression | rapidly reduced | no changes | 28.7 ± 16.8 ng/mL | 1140 ± 937 ng/mL | 51.1 ng/mL | 4445.9 ng/mL | ≤ 25%
